We go through 79 compounds from the METLIN SMRT retention time set (Domingo-Almenara et al. 2019).

Structures are written as SMILES.

A short description of this series: gradient 5% acetonitrile 3 min, to 50% in 2 min, to 85% in 15 min, held 3 min, 100 µL/min. The following applies: column: Zorbax Extend-C18 2.1 x 50 mm; eluents: water / acetonitrile, 0.1% formic acid. Put shortly: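 Values are retention times taken from adduct peaks that software picked and an analyst inspected. The pure standards were run as mixtures of ~100 molecules on HPLC linked to a quadrupole time-of-flight mass spectrometer, in positive and negative ionization mode. A Zorbax Extend-C18 column (2.1 × 50 mm, 1.8 μm) was used at 100 μL/min with water and acetonitrile, each including 0.1% formic acid.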
Turning to `O=C(CN1C(=O)c2ccccc2Sc2ncccc21)N1CCC(N2CCCCC2)CC1`, the RP-LC retention time turned out to be 583 s.

`O=C(NCC#CCN1CCc2ccccc2C1)NC1CCCCC1` yielded an RP-LC retention time of 566 s.

Regarding `CCn1cc(C(=O)Nc2ccc(Br)cc2F)c(=O)c2ccc(C)nc21`, the RP-LC retention time stood at 1290 s.

Turning to `CCc1ccc(NC(=O)Cn2cnc3nc4c(cc3c2=O)CCCC4)cc1`, the RP-LC retention time was 788 s.

`COc1ccccc1-c1nnc(-c2ccc(Cl)c(S(=O)(=O)N3CCCCC3)c2)o1` yielded an RP-LC retention time of 1100 s.

As to `O=C(Nc1ccc2nccnc2c1)c1csc2c1CCCC2`, the RP-LC retention time worked out at 804 s.

In turn, `CC(C)Oc1ccc(-c2noc(Cn3cnc4c(oc5ccccc54)c3=O)n2)cc1` came in with an RP-LC retention time of 1060 s.

`O=C(c1cc(F)ccc1Cl)N1CCN(C(=O)c2nnn3c2COC(c2ccccc2)C3)CC1` (centres undefined) yielded an RP-LC retention time of 894 s.

The compound `O=C(c1ccc(F)cc1)N1CCC(n2nc(-c3ccsc3)ccc2=O)CC1` displayed an RP-LC retention time of 816 s.

The compound `CN1c2cc(F)ccc2C(=O)NC12CCN(C(=O)c1cccc(F)c1)CC2` returned an RP-LC retention time of 769 s.

As for `CCOC(=O)c1noc2ncnc(N3CCN(c4ccccc4OC)CC3)c12`, the RP-LC retention time is 970 s.

In turn, `O=C1CC(c2noc(C3CCCC3)n2)CN1c1ccccc1` (centres undefined) gave an RP-LC retention time of 917 s.

`O=C1CN(Cc2ccco2)C2CS(=O)(=O)CC2N1c1ccc(Cl)cc1` (centres undefined) gave an RP-LC retention time of 714 s.

In turn, `N#Cc1cccc(NC(=O)Cn2cnc3nc4c(cc3c2=O)CCCC4)c1` came in with an RP-LC retention time of 700 s.

Turning to `O=C(Nc1nnc(-c2ccno2)o1)C1CCCN(S(=O)(=O)c2ccc(Cl)s2)C1` (centres undefined), the RP-LC retention time came to 757 s.

In the case of `Cc1cccc(-c2noc(C3CCCN3C(=O)NC3CCCC3)n2)c1` (centres undefined), the RP-LC retention time turned out to be 955 s.

For `O=C(NCCc1ccccc1)NCC1CCN(Cc2ccco2)CC1`, the RP-LC retention time turned out to be 562 s.

`CC(C)Cn1cc(CCNC(=O)c2c(F)cccc2F)c2cccnc21` returned an RP-LC retention time of 788 s.

`CCn1cc(S(=O)(=O)N2CCC(n3c(C)cnc3-c3ccccc3)CC2)cn1` registered an RP-LC retention time of 631 s.

Consider `Cc1ccn2cc(-c3ccc(NS(=O)(=O)c4ccc5ccccc5c4)cc3)nc2n1`, for which the RP-LC retention time was 690 s.

In the case of `C(=C\c1ccccc1)/CN1CCN(C(c2ccccc2)c2ccccc2)CC1`, the RP-LC retention time came to 972 s.

`Cc1ccc(NC(=O)Cn2nc(N(C)C)c3ccccc3c2=O)cc1F`: the RP-LC retention time stood at 920 s.

`COc1ccc(C(=O)Nc2nnc(SCc3nnc(-c4ccc5c(c4)OCO5)o3)s2)cc1OC` registered an RP-LC retention time of 834 s.

Regarding `Cc1ccccc1NC(=O)c1sc(-c2cn(C)c3ncccc23)nc1C`, the RP-LC retention time came out at 890 s.

Consider `Cc1ccc(NC(=O)C2CCCN(S(=O)(=O)c3c[nH]c(C(=O)N4CCCC4)c3)C2)cc1C` (centres undefined), for which the RP-LC retention time came to 866 s.

As to `CCN(Cc1ccncc1)C1CN(S(=O)(=O)c2ccc3c(c2)CCC3)C1`, the RP-LC retention time was found to be 686 s.

For `COc1ccc(-c2nnc(-c3cc(S(=O)(=O)N4CCCCCC4)ccc3Cl)o2)cc1`, the RP-LC retention time is 1150 s.

In the case of `Cc1ccc(NC(=O)CSCC(=O)N2CCC(C(N)=O)CC2)cc1`, the RP-LC retention time worked out at 630 s.

In the case of `CN(C)S(=O)(=O)c1ccc2c(c1)N(CC(=O)NCc1ccccc1)C(=O)C1CCCCN21` (centres undefined), the RP-LC retention time came out at 987 s.

In turn, `Cc1ccc(-c2ncc(C(=O)Nc3ccc4c(c3)OCCO4)c(-c3ccncc3)n2)cc1` returned an RP-LC retention time of 880 s.

`CCOc1ccccc1-c1noc(CN2C(=O)C(C)Oc3ccccc32)n1` (centres undefined): the RP-LC retention time came to 1130 s.

As for `CC(C)CN1CCn2cc(S(=O)(=O)Nc3cccc(F)c3)cc2C1=O`, the RP-LC retention time was 786 s.

Regarding `Cn1nc2n(c1=O)CCN(C(=O)Cc1cccs1)CC2`, the RP-LC retention time was determined as 610 s.

`O=C(Cc1ccsc1)N1CCC2(CC1)N=C(c1ccc(Cl)cc1)NO2` registered an RP-LC retention time of 865 s.

`O=C(NCc1cccs1)C1CCCN(c2nnc3c(Cl)cccn23)C1` (centres undefined): the RP-LC retention time came to 684 s.

Consider `O=C1C[C@@H](c2ccc(O)c(O)c2)Oc2cc(O[C@H]3O[C@@H](CO)[C@H](O)[C@@H](O)[C@@H]3O)cc(O)c21`, for which the RP-LC retention time amounted to 723 s.

Compound `CS(=O)(=O)N1CCN(C(=O)CCC2CCN(c3cc(NC4CC4)ncn3)CC2)CC1` registered an RP-LC retention time of 606 s.

Compound `CCc1nc(-c2csc(S(=O)(=O)N3CCCC(C(=O)Nc4cccc(C)n4)C3)c2)no1` (centres undefined) showed an RP-LC retention time of 869 s.

`CN1c2ccccc2C(=O)N2CCc3c([nH]c4ccccc34)C21` (centres undefined) registered an RP-LC retention time of 890 s.

Compound `CNCc1ccc(-c2cc(Cl)cc(Cl)c2)o1` had an RP-LC retention time of 658 s.

`COCC(=O)N(CC(=O)N1CCc2sccc2C1COc1cccc(OC)c1)CC(C)C` (centres undefined): the RP-LC retention time came out at 894 s.

As to `O=C(c1ccc2cc[nH]c2c1)N1CCN(C(=O)c2nnn3c2COC(c2ccccc2)C3)CC1` (centres undefined), the RP-LC retention time was found to be 773 s.

As to `CCC(C)NC(=O)CCc1cc2cc(OC)ccc2[nH]c1=O` (centres undefined), the RP-LC retention time is 668 s.

Compound `COc1cccc(NC(=O)NCC2CC(=O)N(Cc3ccc(F)cc3)C2)c1OC` (centres undefined) had an RP-LC retention time of 695 s.

`Cc1ccc2c(c1)NC(=O)C(C(=O)NC1CCCCCCC1)O2` (centres undefined) had an RP-LC retention time of 895 s.

`COC(=O)c1cc(S(=O)(=O)N2CCCC2C(=O)Nc2ccc(C)cc2Br)cn1C` (centres undefined) came in with an RP-LC retention time of 1000 s.

Compound `CC(C)NC(=O)N(C1CCOCC1)C1CN(C(=O)c2cncc(Br)c2)C1` registered an RP-LC retention time of 604 s.

With `CCCn1c(C)cnc1C1CN(S(=O)(=O)c2ccc(Cl)cc2)C1`, the RP-LC retention time was 678 s.

For the compound `Cc1ccc(S(=O)(=O)Nc2ccc3c(c2)CCC(=O)N3)cc1Cl`, the RP-LC retention time was 766 s.

Take `CCN1CCn2cc(S(=O)(=O)Nc3cc(Cl)ccc3OC)cc2C1=O`: the RP-LC retention time worked out at 764 s.

`Cc1ccc(CNC(=O)C2CCCN(c3ccc(=O)n(-c4ccc(C)c(Cl)c4)n3)C2)cc1` (centres undefined): the RP-LC retention time is 975 s.

`Cc1nc2ccc(Cl)cn2c1[N+](=O)[O-]` returned an RP-LC retention time of 820 s.

Compound `CCCNC(=O)C1CCN(c2ccc(SCC(=O)Nc3ccc(CC)cc3)nn2)CC1` yielded an RP-LC retention time of 694 s.

Turning to `COc1ccc(CC(=O)Nc2cccc(-c3ccc4nnc(-c5ccncc5)n4n3)c2)cc1`, the RP-LC retention time was determined as 624 s.

`Cc1ccc(NC(=O)NCCc2cn(CC(C)C)c3ncccc23)cc1C` showed an RP-LC retention time of 858 s.

The compound `CCCS(=O)(=O)N1CCC2(CC1)C(=O)N(c1cccc(F)c1)C2c1ccccc1` (centres undefined) came in with an RP-LC retention time of 1120 s.

With `CC(C)S(=O)(=O)c1cc2c(cc1NC(=O)c1ccccc1C(F)(F)F)n(C)c(=O)n2C`, the RP-LC retention time was 853 s.

The compound `Cn1c(=O)c(N2CCN(S(=O)(=O)c3cccc(Cl)c3)CC2)nc2ccncc21` showed an RP-LC retention time of 677 s.

As for `CN(C(=O)C1CCN(S(=O)(=O)c2ccc3c(c2)sc(=O)n3C)CC1)C1CCCCC1`, the RP-LC retention time worked out at 910 s.

`CCCOC(=O)Cn1c(=O)oc2cc(S(=O)(=O)N3CCN(c4ccccn4)CC3)ccc21` yielded an RP-LC retention time of 703 s.

`CCOC(=O)N1CCN(C(=O)c2nn(-c3ccccc3C)c(=O)cc2OC)CC1` came in with an RP-LC retention time of 663 s.

Compound `CSc1ccccc1CN1CCC(CNC(=O)C(=O)NCc2cccs2)CC1` showed an RP-LC retention time of 595 s.

In turn, `CN(C)c1cccc(-c2nc(-c3ccc4nnn(C)c4c3)no2)c1` yielded an RP-LC retention time of 1070 s.

`Cc1cccc(-c2[nH]c(C(C)(C)C)nc2-c2ccc3nccnc3c2)n1` yielded an RP-LC retention time of 659 s.

`O=C(CSc1ccc(N2CCN(c3ccccc3)CC2)nn1)NCc1ccco1` displayed an RP-LC retention time of 735 s.

`Cn1cc(-c2ccccc2)cc1C(=O)N1CCOCC1`: the RP-LC retention time amounted to 804 s.

In the case of `Cc1cccc(CNC(=O)CN2CCN(Cc3ccccc3)C2=O)c1`, the RP-LC retention time came to 808 s.

Take `Nc1nc(CN2CCN(c3ccccn3)CC2)nc(Nc2ccc(Oc3ccccc3)cc2)n1`: the RP-LC retention time is 669 s.

Turning to `CC(C)Oc1ccc(CNC(=O)c2nnc(-c3ccc(S(=O)(=O)N4CCOCC4)cc3)o2)cc1`, the RP-LC retention time is 915 s.

Compound `Cc1cccc(-c2csc3c(=O)n(Cc4cc(=O)n5ccccc5n4)cnc23)c1` registered an RP-LC retention time of 831 s.

Turning to `CCC(CC)NC(=O)C1Cn2cccc2C(=O)N1C` (centres undefined), the RP-LC retention time amounted to 661 s.

`O=C(Nc1nc(-c2cc(Cl)sc2Cl)cs1)c1ccc([N+](=O)[O-])s1` came in with an RP-LC retention time of 1310 s.

Compound `CC(=O)Nc1ccc(NC(=O)C2CC(=O)N(CCc3c[nH]c4ccc(F)cc34)C2)cc1` (centres undefined) registered an RP-LC retention time of 675 s.

In turn, `COc1ccc(NC(=O)C2CCN(c3cnc4nc(C)c(C)nc4c3)CC2)c(C)c1` came in with an RP-LC retention time of 683 s.

Consider `CN1CCN(C(CNC(=O)C(=O)Nc2ccc(Cl)cc2)c2ccc3c(c2)OCO3)CC1` (centres undefined), for which the RP-LC retention time is 716 s.

With `COC(=O)c1ncn2c1C(=O)N(c1ccc(C)c(C)c1)C(C)(C(=O)NC1CCCC1)C2` (centres undefined), the RP-LC retention time was determined as 750 s.

`Cc1cc(S(=O)(=O)N2C[C@@H](F)C[C@H]2C(=O)N2CCc3ccccc3C2)ccc1F` registered an RP-LC retention time of 959 s.

Turning to `Cc1ccc2c(Nc3cc(F)ccc3F)c(C(=O)N3CCCC3)cnc2n1`, the RP-LC retention time was determined as 584 s.

In the case of `CCC(C)NS(=O)(=O)c1cc(-c2nnc(-c3ccccc3)o2)ccc1F` (centres undefined), the RP-LC retention time stood at 966 s.
